A short description of data set [1]: Determination of moisture contents with KF moisture meter at different time points. In kind it is physicochemical. The following applies: temperature 23° C., humidity 92.5%.
Data set [2] in a line: Stability of complexes at 30-80° C. It counts as physicochemical.

On to `CC(O)CC(=O)O.CC(O)CC(=O)[O-].[K+]` (stereo not shown) [3-hydroxybutyric acid·potassium 3-hydroxybutyrate], for which the “moisture content (%)” value in data set [1] (30 min) is listed as 0.68%; in data set [1] (1 h), 1.28%; in data set [1] (2 h), 1.93%; in data set [1] (4 h), 3.68%; in data set [1] (6 h) it was 5.92%; in data set [1] (7 h) it was 6.84%. Further, the “moisture content (%)” value in data set [1] (11 h) is 9.67%; in data set [1] (22 h) it was 19.25%. Also, the Stability entry in data set [2] (30° C.) is given as “unchanged”; in data set [2] (40° C.), “unchanged”; in data set [2] (50° C.), “Unchanged”; in data set [2] (60° C.), “unchanged”; in data set [2] (80° C.) it was “melted”.
